Publication PMC6199744, “Development of Chemical Proteomics for the Folateome and Analysis of the Kinetoplastid Folateome” (ACS Infectious Diseases, 2018)

Test system: L. major lysate proteins
Experiment: Multitargeted bead mixture chemoproteomics, single concentration competition, proteome-wide
Type: binding
Settings: for fold change: vehicle control = 1

SMILES: Nc1nc2[nH]cc(CCc3ccc(C(=O)N[C@@H](CCC(=O)O)C(=O)O)cc3)c2c(=O)[nH]1 [PTX, pemetrexed]
- fold change vs vehicle control (protein LMJF.28.0110 […] 3 SUBUNIT, PUTATIVE): 0.95
- fold change vs vehicle control (protein LMJF.28.0490 PROPIONYL-COA C[…] CHAIN, PUTATIVE): 1.09
- fold change (protein LMJF.28.0710 HY[…], CONSERVED (SNARE associated Golgi protein, putative)): 0.8
- fold change vs vehicle control (protein LMJF.28.0930 HY[…], CONSERVED): 0.96
- fold change vs vehicle control (protein LMJF.28.0960 40S RIBOSOMAL PROTEIN S14): 1.01
- fold change vs vehicle control (protein LMJF.28.1530 ATP DEPENDENT DEAD-BOX HELICASE, PUTATIVE): 0.81
- fold change relative to vehicle control (protein LMJF.28.1730, […]-ATP-ASE SUBUNIT 2, PUTATIVE): 1.01
- fold change vs vehicle control (protein LMJF.28.2430 VACUOLAR ATP SYNTHASE SUBUNIT B, PUTATIVE): 0.95
- fold change relative to vehicle control (protein LMJF.28.2770, HEAT-SHOCK PROTEIN HSP70, PUTATIVE): 1.13
- fold change (protein LMJF.28.2910 GLUTAMATE DEHYDROGENASE, PUTATIVE): 0.86
- fold change vs vehicle control (protein LMJF.29.0120 […]-ATPASE SUBUNIT, PUTATIVE): 0.92
- fold change (protein LMJF.29.0620 ATP-BINDING CASSETTE PROTEIN SUBFAMILY A, MEMBER 10, PUTATIVE): 0.73
- fold change relative to vehicle control (protein LMJF.29.0850, HIGH MOBILITY GROUP PROTEIN HOMOLOG TDP-1, PUTATIVE): 1.14
- fold change vs vehicle control (protein LMJF.29.0940 HY[…], CONSERVED): 1
- fold change vs vehicle control (protein LMJF.29.1160 TRYPAREDOXIN): 0.85
- fold change vs vehicle control (protein LMJF.29.1240 HY[…], UNKNOWN FUNCTION): 0.95
- fold change vs vehicle control (protein LMJF.29.1270 100 kDa heat shock protein (Hsp100)): 0.95
- fold change vs vehicle control (protein LMJF.29.1310 CARNITINE/CHOLINE ACETYLTRANSFERASE, PUTATIVE): 0.97
- fold change relative to vehicle control (protein LMJF.29.1760, PAR[…] PROTEIN 1D, PUTATIVE): 1.4
- fold change vs vehicle control (protein LMJF.29.1780 D[…] PROTEIN, PUTATIVE): 0.9
- fold change (protein LMJF.29.2200 GTP-BINDING PROTEIN, PUTATIVE (dynamin-1-like protein)): 0.98
- fold change (protein LMJF.29.2310 ENOYL-COA HYDRATASE/ISOMERASE-LIKE PROTEIN): 0.93
- fold change vs vehicle control (protein LMJF.29.2360 ASPARTYL AMINOPEPTIDASE, PUTATIVE,METALLO-PEPTIDASE, CLAN MH, FAMILY M20): 0.84
- fold change (protein LMJF.29.2860 40S RIBOSOMAL PROTEIN S19-LIKE PROTEIN): 1.11
- fold change (protein LMJF.30.0580 HY[…], CONSERVED (AMP-binding enzyme, putative)): 0.77
- fold change (protein LMJF.30.0850 SURFACE PROTEIN AMASTIN, PUTATIVE): 0.89
- fold change vs vehicle control (protein LMJF.30.1250 PYRIDOXAL KINASE, PUTATIVE): 1.01
- fold change relative to vehicle control (protein LMJF.30.3090, HY[…], CONSERVED (RNA-binding protein 42, putative)): 1.14
- fold change vs vehicle control (protein LMJF.30.3240 GLUTAMYL-TRNA SYNTHETASE, PUTATIVE): 1.09
- fold change (protein LMJF.30.3430 HY[…], CONSERVED (protein mkt1, putative)): 0.97
- fold change (protein LMJF.30.3520 S-ADENOSYL[…]): 0.85
- fold change (protein LMJF.30.3570 ZINC FINGER-DOMAIN PROTEIN, PUTATIVE): 0.7
- fold change relative to vehicle control (protein LMJF.31.0080, HY[…], CONSERVED): 1.19
- fold change vs vehicle control (protein LMJF.31.0340 AMINO ACID PERMEASE, PUTATIVE): 0.93
- fold change (protein LMJF.31.1130 N-ACYL-L-AMINO ACID AMIDOHYDROLASE, PUTATIVE): 0.96
- fold change vs vehicle control (protein LMJF.31.1640 THIOLASE PROTEIN-LIKE PROTEIN): 0.95
- fold change relative to vehicle control (protein LMJF.31.2150, PROSTAGLANDIN F2-ALPHA SYNTHASE/D-ARABINOSE DEHYDROGENASE): 0.94
- fold change vs vehicle control (protein LMJF.31.2250 3,2-TRANS-ENOYL-COA ISOMERASE, MIT[…], PUTATIVE): 0.92
- fold change vs vehicle control (protein LMJF.32.0750 RNA BINDING PROTEIN, PUTATIVE): 1.04
- fold change vs vehicle control (protein LMJF.32.1060 DYNEIN, PUTATIVE): 0.94
- fold change relative to vehicle control (protein LMJF.32.1820, IRON SUPEROXIDE DISMUTASE, PUTATIVE): 1.02
- fold change relative to vehicle control (protein LMJF.32.2320, C-14 STEROL REDUCTASE, PUTATIVE): 1.11
- fold change vs vehicle control (protein LMJF.32.3870 MYOSIN XXI): 0.93
- fold change relative to vehicle control (protein LMJF.33.0240, THIOL-DEPENDENT REDUCTASE 1): 1.12
- fold change (protein LMJF.33.0280 HY[…], CONSERVED): 1.02
- fold change relative to vehicle control (protein LMJF.33.0890, HY[…], CONSERVED): 0.88
- fold change vs vehicle control (protein LMJF.33.1070 HY[…], UNKNOWN FUNCTION): 1.02
- fold change vs vehicle control (protein LMJF.33.1330 CYSTEINE CONJUGATE BETA-LYASE, AMINOTRANSFERASE- LIKE PROTEIN): 0.74
- fold change (protein LMJF.33.1590 HY[…], CONSERVED (3-ketoacyl-CoA reductase, putative)): 1.36
- fold change relative to vehicle control (protein LMJF.33.1860, ATP-BINDING CASSETTE PROTEIN SUBFAMILY D, MEMBER 3, PUTATIVE): 1.27
- fold change relative to vehicle control (protein LMJF.33.2340, SUCCINYL-COA:3-KETOACID-COENZYME A TRANSFERASE, MIT[…], PUTATIVE): 1.06
- fold change relative to vehicle control (protein LMJF.33.2440, HY[…], CONSERVED): 1.15
- fold change relative to vehicle control (protein LMJF.33.2540, CARBOXYPEPTIDASE, PUTATIVE,METALLO-PEPTIDASE, CLAN MA(E), FAMILY M32): 1.24
- fold change (protein LMJF.33.3150 40S RIBOSOMAL PROTEIN S13, PUTATIVE): 1.05
- fold change relative to vehicle control (protein LMJF.34.0140, MALATE DEHYDROGENASE): 1.48
- fold change vs vehicle control (protein LMJF.34.0440 RIBOSOMAL PROTEIN S25): 1.12
- fold change relative to vehicle control (protein LMJF.34.2580, HY[…], CONSERVED (ALBA-domain protein 3)): 1.03
- fold change relative to vehicle control (protein LMJF.34.3250, PUTATIVE PYRUVATE/INDOLE-PYRUVATE CARBOXYLASE, PUTATIVE): 1.01
- fold change (protein LMJF.34.4370 20S […] 7 SUBUNIT, (PUTATIVE)): 0.96
- fold change vs vehicle control (protein LMJF.34.4620 HY[…], CONSERVED): 0.95
- fold change (protein LMJF.35.0070 PROHIBITIN, PUTATIVE): 0.97
- fold change vs vehicle control (protein LMJF.35.0360 ENOYL-COA HYDRATASE/ISOMERASE FAMILY PROTEIN, CONSERVED): 1.16
- fold change (protein LMJF.35.0370 ATP-DEPENDENT DEAD-BOX RNA HELICASE, PUTATIVE): 0.95
- fold change (protein LMJF.35.0420 40S RIBOSOMAL PROTEIN S3A, PUTATIVE): 1.12
- fold change relative to vehicle control (protein LMJF.35.1220, SHORT CHAIN DEHYDROGENASE, PUTATIVE): 1.02
